Results reported in the kinase profiling compilation of Christmann-Franck et al. (2016).

Key:
Assay in all cases: KINOMEscan competition binding
Conditions in all cases: compound 10.0 µM
[1] = biological target: AURKB (human) (UniProt Q96GD4)
[2] = biological target: CDC2L2 (human) (UniProt Q9UQ88)
[3] = biological target: CDK19 (human) (UniProt Q9BWU1)
[4] = biological target: CDK5 (human) (UniProt Q00535)
[5] = biological target: DAPK2 (human) (UniProt Q9UIK4)
[6] = biological target: DCLK3 (human) (UniProt Q9C098)
[7] = biological target: DDR2 (human) (UniProt Q16832)
[8] = biological target: DSTYK (human) (UniProt Q6XUX3)
[9] = biological target: EGFR (human) (UniProt P00533)
[10] = biological target: EPHB2 (human) (UniProt P29323)
[11] = biological target: EPHB3 (human) (UniProt P54753)
[12] = biological target: ERBB2 (human) (UniProt P04626)
[13] = biological target: ERBB4 (human) (UniProt Q15303)
[14] = biological target: FGFR4 (human) (UniProt P22455)
[15] = biological target: FLT4 (human) (UniProt P35916)
[16] = biological target: JAK1 JH2 pseudokinase (human) (UniProt P23458)
[17] = biological target: JAK2 JH1 catalytic (human) (UniProt O60674)
[18] = tested on: KIT (human), P10721 [D816H]
[19] = biological target: MAK (human) (UniProt P20794)
[20] = biological target: MAP2K2 (human) (UniProt P36507)
[21] = biological target: MAP3K10 (human) (UniProt Q02779)
[22] = biological target: MAP3K13 (human) (UniProt O43283)
[23] = biological target: MAP3K9 (human) (UniProt P80192)
[24] = biological target: MAP4K3 (human) (UniProt Q8IVH8)
[25] = biological target: MAPK1 (human) (UniProt P28482)
[26] = biological target: MELK (human) (UniProt Q14680)
[27] = biological target: MET (human) (UniProt P08581)
[28] = biological target: NEK9 (human) (UniProt Q8TD19)
[29] = biological target: PIK3C2G (human) (UniProt O75747)
[30] = tested on: PIK3CA (human), P42336 [H1047L]
[31] = biological target: PLK2 (human) (UniProt Q9NYY3)
[32] = biological target: PRKD2 (human) (UniProt Q9BZL6)
[33] = biological target: PRKD3 (human) (UniProt O94806)
[34] = biological target: RIPK4 (human) (UniProt P57078)
[35] = biological target: RPS6KA1 KD2 (human) (UniProt Q15418)
[36] = biological target: RPS6KA6 KD2 (human) (UniProt Q9UK32)
[37] = biological target: RPS6KB1 (human) (UniProt P23443)
[38] = biological target: SNRK (human) (UniProt Q9NRH2)
[39] = biological target: SRPK3 (human) (UniProt Q9UPE1)
[40] = biological target: STK32C (human) (UniProt Q86UX6)

ERBB4 (human), sequence (Q15303 whole entry, looked up): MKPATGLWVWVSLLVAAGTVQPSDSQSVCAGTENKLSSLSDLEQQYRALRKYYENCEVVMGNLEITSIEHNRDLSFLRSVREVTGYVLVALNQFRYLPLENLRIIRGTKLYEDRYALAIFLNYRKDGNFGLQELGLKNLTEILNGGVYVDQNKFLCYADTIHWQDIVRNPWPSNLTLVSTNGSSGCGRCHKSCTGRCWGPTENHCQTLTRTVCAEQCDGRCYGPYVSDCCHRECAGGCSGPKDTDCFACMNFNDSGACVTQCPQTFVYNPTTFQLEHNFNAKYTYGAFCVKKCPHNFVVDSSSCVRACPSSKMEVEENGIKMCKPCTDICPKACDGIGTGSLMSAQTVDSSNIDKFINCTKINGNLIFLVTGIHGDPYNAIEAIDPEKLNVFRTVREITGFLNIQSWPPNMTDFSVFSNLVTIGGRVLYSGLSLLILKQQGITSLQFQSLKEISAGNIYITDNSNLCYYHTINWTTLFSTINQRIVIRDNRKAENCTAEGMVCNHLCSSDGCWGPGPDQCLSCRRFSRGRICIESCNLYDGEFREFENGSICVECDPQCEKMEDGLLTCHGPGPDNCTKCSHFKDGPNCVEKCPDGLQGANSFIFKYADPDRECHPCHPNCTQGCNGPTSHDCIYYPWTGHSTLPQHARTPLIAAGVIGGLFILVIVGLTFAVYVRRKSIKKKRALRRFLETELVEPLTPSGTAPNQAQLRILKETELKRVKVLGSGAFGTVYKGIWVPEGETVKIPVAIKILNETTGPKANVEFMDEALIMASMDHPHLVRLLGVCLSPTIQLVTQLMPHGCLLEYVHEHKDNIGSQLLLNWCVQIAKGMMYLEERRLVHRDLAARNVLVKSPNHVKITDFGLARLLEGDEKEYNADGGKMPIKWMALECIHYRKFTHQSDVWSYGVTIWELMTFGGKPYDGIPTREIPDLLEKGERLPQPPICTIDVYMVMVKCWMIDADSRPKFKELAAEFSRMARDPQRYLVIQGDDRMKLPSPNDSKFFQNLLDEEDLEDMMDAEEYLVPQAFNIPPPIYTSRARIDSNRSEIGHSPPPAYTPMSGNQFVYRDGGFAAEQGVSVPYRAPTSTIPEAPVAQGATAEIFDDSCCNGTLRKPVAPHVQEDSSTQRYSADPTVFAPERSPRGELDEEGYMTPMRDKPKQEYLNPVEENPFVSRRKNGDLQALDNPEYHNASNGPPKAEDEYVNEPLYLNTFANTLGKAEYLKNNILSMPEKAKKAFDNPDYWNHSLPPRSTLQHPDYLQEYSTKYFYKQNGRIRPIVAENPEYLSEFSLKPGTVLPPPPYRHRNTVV
RPS6KA1 KD2 (human), sequence (Q15418 whole entry, looked up): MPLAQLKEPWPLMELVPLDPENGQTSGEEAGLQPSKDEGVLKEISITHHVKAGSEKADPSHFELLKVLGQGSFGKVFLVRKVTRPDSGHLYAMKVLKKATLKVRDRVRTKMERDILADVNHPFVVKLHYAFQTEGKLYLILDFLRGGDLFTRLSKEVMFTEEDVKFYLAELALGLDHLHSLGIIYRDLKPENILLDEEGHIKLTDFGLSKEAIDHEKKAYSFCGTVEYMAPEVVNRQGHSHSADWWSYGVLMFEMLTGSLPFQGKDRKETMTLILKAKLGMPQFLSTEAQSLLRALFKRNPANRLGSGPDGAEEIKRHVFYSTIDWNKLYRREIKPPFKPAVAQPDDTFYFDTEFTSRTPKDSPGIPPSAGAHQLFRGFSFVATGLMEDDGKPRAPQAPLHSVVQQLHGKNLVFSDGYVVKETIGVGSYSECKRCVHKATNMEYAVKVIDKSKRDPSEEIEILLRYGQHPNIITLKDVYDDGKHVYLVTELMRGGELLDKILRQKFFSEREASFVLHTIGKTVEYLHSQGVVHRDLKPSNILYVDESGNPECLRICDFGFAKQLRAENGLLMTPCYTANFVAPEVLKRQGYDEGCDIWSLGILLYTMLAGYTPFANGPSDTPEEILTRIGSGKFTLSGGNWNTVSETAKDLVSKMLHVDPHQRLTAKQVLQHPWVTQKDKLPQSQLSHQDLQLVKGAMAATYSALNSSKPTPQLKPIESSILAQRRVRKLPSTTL
RPS6KB1 (human), sequence (P23443 whole entry, looked up): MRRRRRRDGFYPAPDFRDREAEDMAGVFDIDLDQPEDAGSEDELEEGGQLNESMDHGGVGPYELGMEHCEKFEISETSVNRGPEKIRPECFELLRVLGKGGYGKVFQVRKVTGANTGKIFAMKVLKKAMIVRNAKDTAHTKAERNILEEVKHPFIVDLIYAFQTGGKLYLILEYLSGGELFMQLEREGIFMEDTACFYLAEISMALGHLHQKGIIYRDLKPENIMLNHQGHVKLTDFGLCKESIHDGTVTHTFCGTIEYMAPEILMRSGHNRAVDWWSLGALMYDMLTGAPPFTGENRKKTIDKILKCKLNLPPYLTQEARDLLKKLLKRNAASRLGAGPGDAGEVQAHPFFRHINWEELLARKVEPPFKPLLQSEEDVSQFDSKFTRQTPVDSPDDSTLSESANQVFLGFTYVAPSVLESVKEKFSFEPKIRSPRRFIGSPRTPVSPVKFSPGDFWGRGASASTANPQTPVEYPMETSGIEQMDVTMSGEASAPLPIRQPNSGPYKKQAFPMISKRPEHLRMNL
DAPK2 (human), sequence (Q9UIK4 whole entry, looked up): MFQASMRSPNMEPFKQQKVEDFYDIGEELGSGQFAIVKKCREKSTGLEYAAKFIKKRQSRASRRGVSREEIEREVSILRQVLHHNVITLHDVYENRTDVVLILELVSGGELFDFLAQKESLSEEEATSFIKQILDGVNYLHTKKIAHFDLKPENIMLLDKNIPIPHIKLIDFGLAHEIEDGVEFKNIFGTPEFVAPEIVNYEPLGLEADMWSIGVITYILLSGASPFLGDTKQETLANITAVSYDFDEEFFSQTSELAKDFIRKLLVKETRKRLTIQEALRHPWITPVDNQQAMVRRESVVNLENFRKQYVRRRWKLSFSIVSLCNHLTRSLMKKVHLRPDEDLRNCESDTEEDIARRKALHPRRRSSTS
EPHB3 (human), sequence (P54753 whole entry, looked up): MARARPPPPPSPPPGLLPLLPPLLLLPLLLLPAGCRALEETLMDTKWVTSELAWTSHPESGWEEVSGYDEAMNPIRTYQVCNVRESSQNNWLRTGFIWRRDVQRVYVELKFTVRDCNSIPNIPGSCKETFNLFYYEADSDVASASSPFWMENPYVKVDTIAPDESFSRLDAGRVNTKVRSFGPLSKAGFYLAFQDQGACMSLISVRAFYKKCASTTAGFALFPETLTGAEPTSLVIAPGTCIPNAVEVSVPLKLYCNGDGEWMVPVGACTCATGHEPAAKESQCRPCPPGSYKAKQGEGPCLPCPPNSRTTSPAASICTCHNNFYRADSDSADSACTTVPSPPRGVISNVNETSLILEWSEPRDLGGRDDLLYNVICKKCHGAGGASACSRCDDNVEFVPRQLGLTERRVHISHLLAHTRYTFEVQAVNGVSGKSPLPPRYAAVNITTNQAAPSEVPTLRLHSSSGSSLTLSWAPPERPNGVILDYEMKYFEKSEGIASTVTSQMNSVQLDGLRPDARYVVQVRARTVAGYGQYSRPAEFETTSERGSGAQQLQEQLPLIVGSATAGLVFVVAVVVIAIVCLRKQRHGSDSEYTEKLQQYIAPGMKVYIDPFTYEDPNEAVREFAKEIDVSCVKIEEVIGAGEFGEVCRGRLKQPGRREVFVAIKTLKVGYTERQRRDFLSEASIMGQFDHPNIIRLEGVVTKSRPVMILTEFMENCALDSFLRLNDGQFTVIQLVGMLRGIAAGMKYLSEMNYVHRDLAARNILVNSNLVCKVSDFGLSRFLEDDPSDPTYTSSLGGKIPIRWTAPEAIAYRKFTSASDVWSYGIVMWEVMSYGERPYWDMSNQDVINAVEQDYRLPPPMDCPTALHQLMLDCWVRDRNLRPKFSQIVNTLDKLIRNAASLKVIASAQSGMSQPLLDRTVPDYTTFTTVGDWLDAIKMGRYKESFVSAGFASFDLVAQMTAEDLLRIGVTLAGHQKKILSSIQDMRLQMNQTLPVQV
MAP4K3 (human), sequence (Q8IVH8 whole entry, looked up): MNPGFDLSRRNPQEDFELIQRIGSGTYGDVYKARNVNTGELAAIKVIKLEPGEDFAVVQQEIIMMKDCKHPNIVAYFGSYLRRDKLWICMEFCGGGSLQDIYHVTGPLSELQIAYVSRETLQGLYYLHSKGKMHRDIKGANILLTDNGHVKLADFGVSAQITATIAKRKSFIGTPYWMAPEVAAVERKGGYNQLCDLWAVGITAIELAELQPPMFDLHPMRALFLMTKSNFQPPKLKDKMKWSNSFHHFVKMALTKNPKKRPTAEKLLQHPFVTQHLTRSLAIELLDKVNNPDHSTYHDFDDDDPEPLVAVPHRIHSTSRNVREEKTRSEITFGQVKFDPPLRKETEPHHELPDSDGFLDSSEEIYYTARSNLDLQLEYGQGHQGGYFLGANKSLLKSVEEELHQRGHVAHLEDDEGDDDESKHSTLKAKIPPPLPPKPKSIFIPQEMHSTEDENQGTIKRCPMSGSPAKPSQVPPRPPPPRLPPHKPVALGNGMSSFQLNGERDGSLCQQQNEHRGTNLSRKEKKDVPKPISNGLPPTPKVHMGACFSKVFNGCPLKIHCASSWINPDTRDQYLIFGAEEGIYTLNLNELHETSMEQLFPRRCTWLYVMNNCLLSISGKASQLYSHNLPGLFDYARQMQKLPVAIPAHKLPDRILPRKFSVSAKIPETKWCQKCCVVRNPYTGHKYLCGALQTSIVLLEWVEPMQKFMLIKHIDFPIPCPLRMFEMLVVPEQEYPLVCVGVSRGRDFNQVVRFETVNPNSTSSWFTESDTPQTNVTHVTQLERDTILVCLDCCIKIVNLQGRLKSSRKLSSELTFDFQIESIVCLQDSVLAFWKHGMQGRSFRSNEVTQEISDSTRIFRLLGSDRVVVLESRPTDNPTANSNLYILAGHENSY

SMILES: CCN1CCN(Cc2ccc(NC(=O)c3ccc(C)c(/C=C/c4cnc5[nH]ccc5c4OC)c3)cc2C(F)(F)F)CC1
- kinase still bound, per cent of control [1]: 16%
- kinase still bound, per cent of control [2]: 5.4%
- kinase still bound, per cent of control [3]: 4.2%
- kinase still bound, per cent of control [4]: 100%
- kinase still bound, per cent of control [5]: 100%
- kinase still bound, per cent of control [6]: 3.2%
- kinase still bound, per cent of control [7]: 9%
- kinase still bound, per cent of control [8]: 36%
- kinase still bound, per cent of control [9]: 0.4%
- kinase still bound, per cent of control [10]: 0%
- kinase still bound, per cent of control [11]: 4.7%
- kinase still bound, per cent of control [12]: 0%
- kinase still bound, per cent of control [13]: 0.1%
- kinase still bound, per cent of control [14]: 0.45%
- kinase still bound, per cent of control [15]: 0.2%
- kinase still bound, per cent of control [16]: 41%
- kinase still bound, per cent of control [17]: 12%
- kinase still bound, per cent of control [18]: 36%
- kinase still bound, per cent of control [19]: 100%
- kinase still bound, per cent of control [20]: 58%
- kinase still bound, per cent of control [21]: 20%
- kinase still bound, per cent of control [22]: 20%
- kinase still bound, per cent of control [23]: 1.4%
- kinase still bound, per cent of control [24]: 14%
- kinase still bound, per cent of control [25]: 100%
- kinase still bound, per cent of control [26]: 20%
- kinase still bound, per cent of control [27]: 40%
- kinase still bound, per cent of control [28]: 8.4%
- kinase still bound, per cent of control [29]: 82%
- kinase still bound, per cent of control [30]: 100%
- kinase still bound, per cent of control [31]: 60%
- kinase still bound, per cent of control [32]: 50%
- kinase still bound, per cent of control [33]: 52%
- kinase still bound, per cent of control [34]: 56%
- kinase still bound, per cent of control [35]: 20%
- kinase still bound, per cent of control [36]: 15%
- kinase still bound, per cent of control [37]: 9%
- kinase still bound, per cent of control [38]: 95%
- kinase still bound, per cent of control [39]: 13%
- kinase still bound, per cent of control [40]: 100%
